Reference: PubChem BioAssay AID720662 (NMMLSC, 2013)
Activity calls are given as the source filed them.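 Rule for the calls: active = inhibition of esterase secretion above 50%; inactive = inhibition of esterase secretion below 50%.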

What follows are molecules tested on TALL-104 cells, BLT esterase secretion, DTNB absorbance (assay: blockers of BLT esterase secretion from TALL-104 – TALL-104 cells, BLT/DTNB absorbance, CherryPick01, confirmation (AID 720662)). Settings: active compounds read high; dose or concentration not given here.
For `CN(c1ccccc1)S(=O)(=O)c1cccc(C(=O)NCCc2c[nH]c3ccccc23)c1`, the inhibition was 23% (inactive). With `CCOc1ccc2[nH]c3c(N4CCc5ccccc5C4)ncnc3c2c1` the inhibition was -5% (inactive). `CCCCn1c(=N)n(CC(=O)c2ccc(Br)s2)c2ccccc21` showed an inhibition of 91%. With `OC(CNCC(c1ccc(Cl)cc1Cl)c1c[nH]c2ccccc12)c1ccccc1` (stereo not given) the inhibition was 2% (inactive). For `CCOC(=O)c1c(CSc2ccccc2)n(C)c2cc(Br)c(O)c(CN(C)C)c12`, the inhibition was 25% (inactive). In the case of `COc1ccc([N+](=O)[O-])cc1Nc1c2ccccc2nc2ccccc12`, the inhibition is reported as 10% (inactive). `CCc1ccc2nc(N(CCCN(C)C)C(=O)c3ccc(S(=O)(=O)N4CCc5ccccc5C4)cc3)sc2c1` showed an inhibition of 67%. Molecule `COc1ccccc1CNc1nc(NCc2ccc(C(C)C)cc2)c2sccc2n1` has an inhibition of 54%. With `N#Cc1ccc(NC(=O)Nc2ccc(Oc3ccc(NC(=O)Nc4ccc(C#N)cc4)cc3)cc2)cc1` the inhibition was 36% (inactive). `CC(=O)Nc1ccc2sn(-c3ccccc3)c(=O)c2c1` was tested, and the inhibition was 20% (inactive). `CC1=C(C)CS(=O)N(S(=O)(=O)c2ccc(Cl)cc2)C1` (stereo not given) was tested, and the inhibition was 99%. In the case of `O=S(=O)(c1ccccc1)c1nnn2c1nc(NC1CCN(Cc3ccccc3)CC1)c1cc(Cl)ccc12`, the inhibition is reported as 88%. Work on `CC(C)(c1ccccc1)c1ccc(OCC(O)CNC2CCN(Cc3ccccc3)CC2)cc1` (stereo not given) yielded an inhibition of 83%. In the case of `CN(C)CCCNC(=S)NCC(c1ccc(Cl)cc1Cl)c1c[nH]c2ccccc12` (stereo not given), the inhibition is reported as -3% (inactive). `CCOC(=O)c1c(NC(=O)COc2ccccc2OCC)sc2c1CC(C)(C)NC2(C)C` gave an inhibition of 55%. Work on `Cn1sc(=O)c2cc(S(=O)(=O)NC3CC3)ccc21` yielded an inhibition of 63%. With `CCCCC[C@@H](C)N1C[C@@H](COCc2ccccc2)Oc2cc(N3CC[C@H](N(C)C)C3)ccc2S1(=O)=O` the inhibition was 74%. `O=c1c2ccccc2sn1-c1ccccc1F` was tested, and the inhibition was 38% (inactive). Molecule `CCCS(=O)(=O)Nc1ccc(Nc2c3ccccc3nc3ccccc23)c(OC)c1` has an inhibition of 81%. For `CC(=O)Nc1ccc2c(=O)n(-c3ccccc3)sc2c1`, the inhibition was 25% (inactive). In the case of `CCOc1ccc2nc(N(CCCN(C)C)C(=O)c3ccc(S(=O)(=O)N4CCc5ccccc5C4)cc3)sc2c1`, the inhibition is reported as 91%. In the case of `COc1cc(-c2coc3c(C(=O)NCc4ccc(OC)c(OC)c4)cccc23)ccc1O`, the inhibition is reported as 20% (inactive). For `Cc1ccc(-n2nnc3c(=O)oc4ccccc4c32)cc1`, the inhibition was 94%. `COc1cccc(-c2cnc3c(NC(C)=O)cc(-c4ccsc4)cn23)c1` gave an inhibition of 64%. For `CN(C)CCNC(=O)c1ccc(-c2cn3c(-c4ccc(Oc5ccccc5)cc4)cnc3cn2)cc1`, the inhibition was 14% (inactive). `CC1COCC(C)N1C1=C(Cl)C(=O)c2ccccc2C1=O` (stereo not given) was tested, and the inhibition was 97%. `CCCCC[C@@H](C)N1C[C@@H](COCc2ccccc2)Oc2cc(N3CC[C@@H](N(C)C)C3)ccc2S1(=O)=O` showed an inhibition of 76%. Work on `COc1ccc(-c2cc(NC=O)c3ncc(-c4cccc(OC)c4)n3c2)cc1` yielded an inhibition of 77%. `c1ccc(CNc2nc(NCC3CC3)nc3cc(-c4ccccc4)sc23)cc1` gave an inhibition of 86%. For `COc1ccc(N2C(=O)CC(Sc3nnc(-c4ccccc4)o3)C2=O)cc1` (stereo not given), the inhibition was 89%. For `COc1cccc(-c2cnc3c(NC(C)=O)cc(-c4ccccc4OC)cn23)c1`, the inhibition was 68%. Molecule `CCN(CC)CCCNc1ccc(-c2nnc(-c3ccc(OCC(C)C)cc3)o2)cn1` has an inhibition of 52%. `O=C(Nc1ccc(F)cc1)c1nc(S(=O)(=O)Cc2ccccc2)ncc1Cl` gave an inhibition of 97%. With `COC(=O)c1c(NC(=O)c2nc3ccccc3s2)sc2c1CC(C)(C)NC2(C)C` the inhibition was 51%. `COC(=O)c1c(NC(=O)c2ccc(C(=O)c3ccccc3)cc2)sc2c1CC(C)(C)NC2(C)C` was tested, and the inhibition was 5% (inactive). In the case of `Cn1cncc1C#Cc1c(-c2ccc(S(C)(=O)=O)cc2)sc2ccccc12`, the inhibition is reported as 13% (inactive). In the case of `CN1CCN(c2cc(-c3ccccc3)nc3cc(-c4ccc(F)cc4)nn23)CC1`, the inhibition is reported as 79%. `CCc1ccc(/C=C2/Sc3ccccc3N(CC(=O)NCCCN3CCOCC3)C2=O)cc1` was tested, and the inhibition was 14% (inactive). With `O=C(Cn1sc2ccccc2c1=O)NC12CC3CC(CC(C3)C1)C2` the inhibition was 33% (inactive). With `Cc1ccc(S(=O)(=O)n2ccc3c(OCCOCCNCc4ccc(F)cc4)cccc32)cc1` the inhibition was 67%. For `COc1cccc(NC(=O)Nc2nc(-c3ccc(OC)c(OC)c3)cs2)c1`, the inhibition was 96%. For `COc1ccc(-n2sc3ccccc3c2=O)cc1`, the inhibition was 45% (inactive). In the case of `COc1cccc(-c2cnc3c(NC=O)cc(-c4ccccc4)cn23)c1`, the inhibition is reported as 43% (inactive). `O=C1CC(Sc2nnnn2-c2ccccc2)C(=O)N1c1cccc(Cl)c1` (stereo not given) gave an inhibition of 72%. For `O=C(Cn1sc2ccccc2c1=O)Nc1ccc(F)cc1`, the inhibition was 38% (inactive). In the case of `COC(=O)[C@]12CCCCC=C1N(Cc1cccc3ccccc13)C(=O)[C@H](CC(=O)NCc1ccc(OC)c(OC)c1)C2`, the inhibition is reported as 14% (inactive). Molecule `O=c1c2ccccc2sn1-c1ccccc1` has an inhibition of 68%. In the case of `O=c1c2ccc(F)cc2sn1-c1ccccc1`, the inhibition is reported as 61%. With `Cc1ccc(Nc2nc(NCc3ccco3)c3ccccc3n2)cc1` the inhibition was 12% (inactive). With `N#Cc1c(Nc2ccccc2Cl)s[nH]c1=O` the inhibition was 92%. Work on `Cc1cc(C)c2nc(C)cc(N/N=C/c3ccc(O)cc3)c2c1` yielded an inhibition of 88%. Molecule `Cc1cc(N2CCN(c3nc(-c4ccc([N+](=O)[O-])cc4)cs3)CC2)c2ccccc2n1` has an inhibition of 80%. With `O=C1C=CC(=O)N1N(c1ccccc1)c1ccccc1` the inhibition was 27% (inactive). `CN1CCN(CCCNC(=O)c2ccc(/C=C3\Sc4ccccc4N(Cc4ccc(F)cc4)C3=O)cc2)CC1` was tested, and the inhibition was -12% (inactive). In the case of `COc1ccccc1CNc1nc(NCc2ccc3occc3c2)c2sccc2n1`, the inhibition is reported as 22% (inactive). Molecule `CCOc1ccc2nc(C)cc(Nc3cccc([N+](=O)[O-])c3)c2c1` has an inhibition of 95%. Molecule `CCOc1ccccc1CNC(=O)C1CCN(c2nnc(C)c3c(C)n(-c4ccc(C)cc4)nc23)CC1` has an inhibition of 94%. `Nc1c(C(=O)NCc2ccc(F)cc2)c2nc3ccccc3nc2n1CCCN1CCOCC1` was tested, and the inhibition was 15% (inactive). With `CCOC(=O)c1cc(-c2csc(Nc3c(C)cc(C)cc3C)n2)on1` the inhibition was 68%. Molecule `CCOc1cc(CNCCc2ccc(S(N)(=O)=O)cc2)ccc1OCc1ccc(Cl)cc1` has an inhibition of 90%. For `O=CNc1cc(-c2ccsc2)cn2c(-c3ccccc3)cnc12`, the inhibition was 41% (inactive). In the case of `CCCCCCSc1cccc(-c2nc3ccccn3c2NCc2ccccc2)c1`, the inhibition is reported as 7% (inactive). For `CCCNC(=O)Cn1sc2nc(C)cc(C)c2c1=O`, the inhibition was 38% (inactive). For `O=C(CN1C(=O)/C(=C\c2cccc(Br)c2)Oc2ccccc21)NCCCN1CCOCC1`, the inhibition was 24% (inactive). For `CC(C)CNC(=O)c1c(N)n(Cc2ccc3c(c2)OCO3)c2nc3ccccc3nc12`, the inhibition was 3% (inactive). `O=C1Nc2ccc(Br)cc2/C1=C/C(=O)c1ccccc1` was tested, and the inhibition was 3% (inactive). `COc1ccc(-c2cc(NC=O)c3ncc(-c4ccccc4)n3c2)cc1OC` showed an inhibition of 63%. For `CCC(=C(c1ccc(OC)cc1)c1ccc(OC)cc1)c1cn(CC(O)CN2CCN(C)CC2)c2ccccc12` (stereo not given), the inhibition was 1% (inactive). With `O=C(OCc1ccccc1)N(CCCCN(CCCNCc1ccccc1)C(=O)OCc1ccccc1)CCCNCc1ccccc1` the inhibition was 88%. `CCCCC[C@@H](C)N1C[C@H](COCc2ccccc2)Oc2cc(N3CC[C@@H](N(C)C)C3)ccc2S1(=O)=O` showed an inhibition of 64%. `CCc1nc2ccc(C(=O)NC3CCN(Cc4ccccc4)CC3)cn2c1N(C)Cc1cc2ccccc2s1` was tested, and the inhibition was -4% (inactive). In the case of `Fc1ccc(/C=C\c2nccc3c2[nH]c2ccccc23)cc1`, the inhibition is reported as 86%. In the case of `CCOC(=O)c1nnc(-c2ccccc2)nc1Sc1ccccc1Cl`, the inhibition is reported as -8% (inactive). For `CC1(C(=O)OCC(=O)Nc2nc(-c3ccc(F)c(F)c3)cs2)CC1(Cl)Cl` (stereo not given), the inhibition was -8% (inactive). `CC1=NOC(=O)/C1=C/c1ccc(-c2ccc(Cl)cc2)o1` gave an inhibition of 73%.
